This is an account of results in patent EP1803452A1, “ESTER DERIVATIVE AND PHARMACEUTICAL USE THEREOF” (Japan Tobacco, Inc., priority 2004, dated 2006).

SMILES strings stand for the structures.

Data set [1] in a line: Metabolic stability test in plasma. The data set is classed as in vitro ADME, human. The note with it: LC/MS; for remaining at 10 min: unchanged form after 10 minutes at 37°C in human plasma, read-out: Remaining rate in human plasma (%/10min); for remaining at 1 h: unchanged form after 60 minutes at 37°C in human plasma, read-out: Remaining rate in human plasma (%/60min). The gist of the method: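 Compound in DMSO spiked into human, mouse or hamster plasma, incubated at 37°C for 0, 10 and 60 minutes, then quenched with acetonitrile/formic acid (final 0.1%). Unchanged compound in supernatant quantified by LC/MS; remaining rate (%) relative to time zero.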

Data set [2] can be described thus: Metabolic stability test in liver S9. Particulars: pH 7.4, human liver S9 2 mg protein/mL, LC/MS; for remaining at 10 min: unchanged form after 10 minutes at 37°C, read-out: Remaining rate in human liver S9 (%/10min); for remaining at 1 h: unchanged form after 60 minutes at 37°C, read-out: Remaining rate in human liver S9 (%/60min). In kind it is in vitro ADME. The procedure, abridged: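 Compound from DMSO solution was incubated at 37°C with human liver S9 (final 2 mg protein/mL) in 100 mM potassium phosphate pH 7.4 with an NADPH-regenerating system for 0, 10 and 60 minutes. Reactions were stopped with acetonitrile/0.1% formic acid. Unchanged compound was measured by LC/MS as remaining rate (%) relative to zero time.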

Data set [3] in a line: Stability test in buffer (pH 7.4). Particulars: phosphate buffer/acetonitrile 7:3, 100 mM potassium phosphate buffer (pH 7.4) and acetonitrile 7:3 (v/v), LC/MS; for remaining at 10 min: 10 minutes at 37°C, read-out: Buf. remaining rate (%/10min); for remaining at 1 h: 60 minutes at 37°C, read-out: Buf. remaining rate (%/60min). The data set is classed as physicochemical. The gist of the method:
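Compound from DMSO solution incubated at 37°C in 100 mM potassium phosphate buffer/acetonitrile 7:3 (v/v) for 0, 10 and 60 min, then quenched with acetonitrile containing formic acid (final 0.1%). Unchanged compound in supernatant quantified by LC/MS; remaining rate (%) = amount at each time / amount at zero time × 100.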

For data set [4], the target named is T1, Microsomal triglyceride transfer protein (MTP) from human small intestine microsome (Homo sapiens, UniProt P55157).
T1 construct: Human small intestine microsome was dialyzed against 10 mM phosphate buffer; tissue Tissue Transforming Technologies, Inc; host or cells: Human small intestine microsomes, dialysed, centrifuged, and the supernatant purified on DEAE Sepharose (FPLC)
In words: Inhibition test of interliposomal triglyceride (TG) transfer activity by MTP. Particulars: purified MTP from human small intestine microsome, 14C-triolein donor/acceptor liposomes, 37 °C for 1.5 hours. In kind it is biochemical.
Text: Firstly, in order to prepare the donor, there were volatilized under a stream of nitrogen gas a phosphatidylcholine solution containing phosphatidylcholine labeled with ^3H, a cardiolipin solution, and a triolein solution containing triolein labeled with ^14C (each solution had been already dissolved in an appropriate organic solvent), or in order to prepare the acceptor, there were volatilized under nitrogen flow a phosphatidylcholine solution containing phosphatidylcholine labeled with ^3H and a cardiolipin solution (each solution had been already dissolved in an appropriate organic solvent). An appropriate amount of a reaction buffer (15 mM Tris-HCl buffer containing 1 mM EDTA.Na2, 40 mM NaCl, and 0.5% (w/v) bovine serum albumin, pH 7.4) was added thereto to be emulsified. […] Each of the resulting supernatant was used for donor or acceptor.
Each radioactivity in the acceptor and the donor was measured by liquid scintillation counter, and a mixed solution of the acceptor and the donor was prepared with a reaction buffer so as to be a donor-derived radioactivity of 16,000 dpm/400 µL and a acceptor-derived radioactivity of 4,000 dpm/400 µL. 400 µL of the mixed solution of the donor and the acceptor, 45 µL of the reaction buffer, 50 µL of MTP (20 µg/mL), and 5 µL of a sample dissolved in DMSO (dimethyl sulfoxide) or 5 µL of DMSO was mixed (total amount: 500 µL). The mixture was incubated at 37 °C for 1.5 hours. […] The radioactivity in the acceptor was measured by liquid scintillation counter. The value obtained by subtracting the radioactivity in a blank group from the radioactivity in the acceptor of a DMSO group was determined as MTP-mediated TG transfer activity, and it was compared with the value obtained by subtracting the radioactivity in the blank group from the radioactivity in a sample group. […] Inhibition rate (%) was calculated from values obtained according to the following equation. Inhibition rate(%) = (1 minus ((radioactivity of sample group minus radioactivity of blank group)/(radioactivity of DMSO group minus radioactivity of blank group))) × 100.

T1 sequence (P55157 19-894): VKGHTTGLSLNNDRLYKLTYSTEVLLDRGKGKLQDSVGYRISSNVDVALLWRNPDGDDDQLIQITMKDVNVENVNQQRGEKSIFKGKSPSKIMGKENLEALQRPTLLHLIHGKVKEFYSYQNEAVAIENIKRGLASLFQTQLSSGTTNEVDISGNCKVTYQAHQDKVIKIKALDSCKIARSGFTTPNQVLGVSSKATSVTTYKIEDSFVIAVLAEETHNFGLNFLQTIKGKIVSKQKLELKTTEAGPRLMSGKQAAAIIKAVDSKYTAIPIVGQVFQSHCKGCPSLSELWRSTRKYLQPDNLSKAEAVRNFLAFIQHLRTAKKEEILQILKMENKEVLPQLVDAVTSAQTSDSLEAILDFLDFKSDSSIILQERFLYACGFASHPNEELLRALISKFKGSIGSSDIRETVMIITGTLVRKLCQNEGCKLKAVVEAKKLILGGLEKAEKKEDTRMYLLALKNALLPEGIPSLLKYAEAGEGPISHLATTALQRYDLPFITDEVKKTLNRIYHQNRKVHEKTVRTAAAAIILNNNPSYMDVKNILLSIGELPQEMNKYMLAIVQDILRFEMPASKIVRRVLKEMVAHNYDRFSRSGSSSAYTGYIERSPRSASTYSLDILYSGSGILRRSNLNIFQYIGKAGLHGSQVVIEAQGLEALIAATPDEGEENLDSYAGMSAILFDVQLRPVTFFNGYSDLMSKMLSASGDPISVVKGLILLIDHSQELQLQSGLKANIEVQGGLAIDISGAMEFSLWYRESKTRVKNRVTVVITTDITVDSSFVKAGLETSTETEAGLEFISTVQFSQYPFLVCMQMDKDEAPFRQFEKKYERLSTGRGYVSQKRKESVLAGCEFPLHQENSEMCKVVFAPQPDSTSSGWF
T1 sequence (P07237 18-508 partner): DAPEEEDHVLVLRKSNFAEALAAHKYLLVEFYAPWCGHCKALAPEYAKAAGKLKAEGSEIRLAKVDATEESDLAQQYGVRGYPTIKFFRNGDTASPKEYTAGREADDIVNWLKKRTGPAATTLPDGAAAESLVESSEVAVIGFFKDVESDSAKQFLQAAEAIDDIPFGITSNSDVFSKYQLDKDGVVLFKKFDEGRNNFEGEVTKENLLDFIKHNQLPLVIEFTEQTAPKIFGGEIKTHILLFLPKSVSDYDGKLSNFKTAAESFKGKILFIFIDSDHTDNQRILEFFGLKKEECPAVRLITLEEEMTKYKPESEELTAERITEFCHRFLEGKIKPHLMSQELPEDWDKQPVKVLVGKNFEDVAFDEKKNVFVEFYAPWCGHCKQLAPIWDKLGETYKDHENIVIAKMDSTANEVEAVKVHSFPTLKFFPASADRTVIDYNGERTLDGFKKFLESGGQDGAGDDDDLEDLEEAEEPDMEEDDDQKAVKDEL

On to `CCOC(=O)c1cc(OC)c(OC(=O)CCCc2ccc(NC(=O)c3ccc(C)nc3-c3ccc(C(F)(F)F)cc3)c(C(=O)N(C)C)c2)c(C(=O)OC)c1` [Compound 1-54, 4-[4-(3-dimethylcarbamoyl-4-{[6-methyl-2-(4-trifluoromethylphenyl)pyridine-3-carbonyl]amino}phenyl)butyryloxy]-5-methoxyisophthalic acid 1-ethyl ester 3-methyl ester], for which the remaining at 10 min in data set [1] is 0%; in data set [2], 10%; in data set [3] it was 97%. The remaining at 1 h in data set [1] came to 0%; in data set [2] it was 2%; in data set [3] it was 105%. Besides, the “Human intestine MTP (IC50(nM))” value in data set [4] is on record as “+ ++”.
For the compound `COC(=O)c1ccc(OC(=O)CCCc2ccc(NC(=O)c3ccc(C)nc3-c3ccc(C(F)(F)F)cc3)c(C(=O)N(C)C)c2)c(C(=O)OC)c1` [Compound 1-70, 4-[4-(3-dimethylcarbamoyl-4-{[6-methyl-2-(4-trifluoromethylphenyl)pyridine-3-carbonyl]amino}phenyl)butyryloxy]isophthalic acid dimethyl ester], the remaining at 10 min in data set [1] came out at 0%; in data set [2] it was 0%; in data set [3] it was 101%. In addition, the results for the remaining at 1 h in data set [1], in data set [2] and in data set [3] were 0%, 0% and 104%, respectively. The “Human intestine MTP (IC50(nM))” value in data set [4] is on record as “+ ++”.
